# Results from patent US6440935B1, “Inhibition of eucaryotic pathogens and neoplasms and stimulation of fibroblasts and lymphocytes with lytic peptides” (priority 1987, dated 2002).
# Like-named read-outs stand apart in the source and are kept apart here.
# Assays:
# [1] = EL-4 cytotoxicity by chromium release; assay type: cell-based; settings: mouse, EL-4 cells
# Method: (§1) The EL-4 cells were then incubated for 30 minutes in the presence of various peptides at different concentrations. Cytotoxicity was taken as a percentage of chromium released (measured in the culture supernatant) relative to the chromium released by EL-4 cells lysed by detergent.
# (§2) Similar chromium release data were obtained using the same procedure with a 100 μM concentration of peptide, but with EL-4 cell concentrations of 2×10^6, 10^6, and 5×10^5 cells in 0.5 ml medium.
# (§3) The chromium release data was also obtained by using the supernatant from unlabeled EL-4 cells cultured for 30 minutes in the presence of 100 μM peptide as medium for […] EL-4 cultured as described above. The percent cytotoxicity calculated as described above was 20.16 for cecropin SB-37, 19.73 for *cecropin SB-37, 41.96 for Shiva 1, and 106.67 for melittin.
# EL-4 cells = assay: EL-4 cytotoxicity by chromium release; assay type: cell-based; settings: 30 minutes, 10^6 EL-4 cells
# Method: as §1, §2, §3
# Saccharomyces cerevisiae = assay: Effect of lytic peptides on S. cerevisiae (plate count); settings: 1 hour at 37° C., PBS pH 6.8, 500 at 0 μM
structure (smiles),measurement,setting,value
"CC[C@H](C)[C@H](NC(=O)CN)C(=O)NCC(=O)N[C@@H](C)C(=O)N[C@H](C(=O)N[C@@H](CC(C)C)C(=O)N[C@@H](CCCCN)C(=O)N[C@H](C(=O)N[C@@H](CC(C)C)C(=O)N[C@H](C(=O)N[C@H](C(=O)NCC(=O)N[C@@H](CC(C)C)C(=O)N1CCC[C@H]1C(=O)N[C@@H](C)C(=O)N[C@@H](CC(C)C)C(=O)N[C@H](C(=O)N[C@@H](CO)C(=O)N[C@@H](Cc1c[nH]c2ccccc12)C(=O)N[C@H](C(=O)N[C@@H](CCCCN)C(=O)N[C@@H](CCCNC(=N)N)C(=O)N[C@@H](CCCCN)C(=O)N[C@@H](CCCNC(=N)N)C(=O)N[C@@H](CCC(N)=O)C(=O)N[C@@H](CCC(N)=O)C(N)=O)[C@@H](C)CC)[C@@H](C)CC)[C@@H](C)O)[C@@H](C)O)C(C)C)C(C)C [Melittin, reference compound]","cytotoxicity at 30 min, 100 μM","[1]; 100 μM, 2 × 10^6 cells per 0.5 ml, read-out: Percent Cytotoxicity",105%
same,"cytotoxicity at 30 min, 100 μM","[1]; supernatant from unlabeled EL-4 cells cultured 30 minutes with 100 μM peptide used as medium for labeled EL-4, read-out: percent cytotoxicity",107%
same,Percent Cytotoxicity (chromium release vs detergent-lysed cells),EL-4 cells; 10 μM,109.65%
same,Percent Cytotoxicity (chromium release vs detergent-lysed cells),EL-4 cells; 25 μM,106.65%
same,Percent Cytotoxicity (chromium release vs detergent-lysed cells),EL-4 cells; 50 μM,106.81%
same,Percent Cytotoxicity (chromium release vs detergent-lysed cells),EL-4 cells; 100 μM,102.43%
same,Plate Count (Thousands),Saccharomyces cerevisiae; 5 μM,260 Thousands
same,Plate Count (Thousands),Saccharomyces cerevisiae; 50 μM,0 Thousands
